“Also recorded” adds a separate entry of the source. Read-outs that look alike come from different tables or passages of the source.

In one data set the target is T1, purified human αvβ3 (Homo sapiens, UniProt P05106+P06756).
T1 construct: purchased Chemicon International, Temecula, Calif., USA
Kind of data set: ELISA: competitive inhibition of biotinylated vitronectin binding to immobilized purified integrin αvβ3. The conditions noted are these: for in vitro measured IC50 increase from IA-monomer: compared to IA-monomer. As for the experimental part: In vitro Binding Assay. […] Purified integrin αvβ3 protein (Chemicon International, Temecula, Calif., USA) was applied to 96-well polystyrene microtiter plates at 0.1 μg/well. After overnight incubation at 4° C., the plates were washed, and then blocked with milk solution (KPL, Inc. Gaithersburg, Md., USA) at room temperature for 2 hr. The blocking buffer was removed, and the plates were inoculated in quadruplicate with bivalent IAs with a typical starting concentration of 125 nM. Serial dilutions were prepared in the 96-well plates using multichannel pipettes. Biotinylated vitronectin solution (0.1 μg/well) was added to each well as a standard competitor. The plates were incubated at room temperature for 3 h, washed, and the bound vitronectin was detected using NeutrAvidin-HRP conjugate at 0.01 μg/well (Pierce, Rockford, Ill., USA) and LumiGlo® chemiluminescent substrate system (KPL, Inc.). The luminescence was read using a FLUOstar™ OPTIMA Microplate Reader (Durham, N.C., USA). […] (Peptides International, Inc., Louisville, Ky., USA) was also tested using the same method as described above.
Briefly, purified integrin αvβ3 protein (Chemicon International, Temecula, Calif., USA) was applied to 96-well polystyrene microtiter plates for overnight incubation at 4° C. The plates were washed and then blocked with milk solution (KPL, Inc., Gaithersburg, Md., USA) and the plates were inoculated in quadruplicate with multivalent IAs at different concentrations. Biotinylated vitronectin solution was added to each well as a standard competitor. The plates were incubated at room temperature, washed, and the bound vitronectin detected using NeutrAvidin-HRP® conjugate (Pierce, Rockford, Ill., USA) and LumiGlo® chemiluminescent substrate system (KPL, Inc., Gaithersburg, Md., USA). The luminescence was read using a FLUOstar® OPTIMA Microplate Reader (Durham, N.C., USA).
In vitro Binding Affinity Assay. Purified integrin αvβ3 protein (Chemicon International, Temecula, Calif., USA) was applied to 96-well polystyrene microtiter plates at 1 μg/well. After overnight incubation at 4° C., the plates were washed and then blocked with milk solution (KPL, Inc., Gaithersburg, Md., USA) at room temperature for 2 hr. The blocking buffer was removed, and the plates were inoculated in quadruplicate with bivalent IAs with a typical starting concentration of 125 nM. Serial dilutions were prepared in the 96-well plates using multichannel pipettes. Biotinylated vitronectin solution (0.1 μg/well) was added to each well as a standard competitor.
The plates were incubated at room temperature for 3 hr, washed, and the bound vitronectin was detected using NeutrAvidin-HRP conjugate at 0.01 μg/well (Pierce, Rockford, Ill., USA) and LumiGlo® chemiluminescent substrate system (KPL, Inc.). The luminescence was read using a FLUOstar OPTIMA Microplate Reader (Durham, N.C., USA). […] It measured competitive binding of the integrin antagonist and biotinylated human vitronectin for the immobilized receptor αvβ3.
A general note: ELISA stands for enzyme-linked immunosorbent assay.

A further data set concerns B16F10 cells. Kind of data set: In vitro cytotoxicity (MTT) assay, B16F10. The class given is cell-based, mouse. The note with it: B16F10, 100 μg/mL, 24 hr. As for the experimental part:
For cell cytotoxicity assay, the cells were then seeded into 96-well flat-bottomed tissue-culture plates at 1×10^4 cells/well and incubated for 24 hr in humidified atmosphere of 5% (vol./vol.) CO2 at 37° C. in the presence of each compound. The multivalent compound (monomer, dimer, and trimer) sample solutions were diluted with culture medium (1% FBS added) to obtain concentrations in the range of 0.1-100 μg/mL for each compound. The cytotoxic effects of monomer, dimer and trimer compounds were evaluated by adding 100 μL of each sample in 100 μL culture medium to each well. After 24-hrs' incubation, cell viability was evaluated by mitochondrial conversion of 3-(4,5-dimethylthiazol-2-yl)-2,5-diphenyl tetrazolium bromide (MTT assay) (Allison et al., 1985).
Mouse melanoma B16F10 cells (Caliper.CO,) and human melanoma M21 cells were maintained in RPMI 1640 (Caliper) containing 10% (vol./vol.) fetal bovine serum (Invitrogen, Ontario, Canada), 100 U/mL penicillin G, and 100 μg/mL streptomycin for general cell growing condition. For cell cytotoxicity assay, the cells were then seeded into 96-well flat-bottomed tissue-culture plates at 1×10^4 cells/well and incubated for 24 hr or 72 hr in humidified atmosphere of 5% (vol./vol.) CO2 at 37° C. in the presence of each compound. The multivalent compounds (monomer, dimer, trimer) sample solutions were diluted with culture medium (1% FBS added) to obtain the concentration of each compound in the range of 0.1 to 100 μg/mL. The cytotoxic effects of monomer, dimer and trimer compounds solution were evaluated by adding a mixture of 100 μL of each sample and 100 μL of culture medium to each well. After 24-hr or 72-hr incubation, cell viability was evaluated by mitochondrial conversion of 3-(4,5-dimethylthiazol-2-yl)-2,5-diphenyl tetrazolium bromide (MTT assay).

The subject of data set [1] is U-87 MG (ATCC HTB-14) glioblastoma cells over-expressing integrin αvβ3. Kind of data set: Fluorescence microscopy probe binding assay in U-87 cells. The class given is cell-based, human. The note with it: blocking dose 20 μmol/L. As for the experimental part: Fluorescence Microscopy Studies. […] For fluorescence microscopy studies, 1×10^4 U-87 cells were cultured on 35 mm MatTek glass bottom culture dishes. After 24 hr, cells were washed with PBS and then incubated with bivalent-IA-Cy5.5 (200 nM) at 37° C. for 45 min. Integrin specificity of the probe binding was verified by incubating U-87 cells with and without a blocking dose of the non-fluorescent bivalent IA (20 μmol/L). After the incubation period, the cells were washed three times with ice-cold PBS. The fluorescence signal of the cells was recorded using FluoView® 1000 Laser Scanning Confocal Microscope (Olympus, Center Valley, Pa., USA) under a 40× oil-immersion objective, with laser excitation at 675 nm (Cy5.5). A differential interference contrast image was also recorded so that the origin of fluorescent signals could be confirmed.

Setting [2] is: monomer/dimer/trimer study, FIG. 28, Table 5, read-out: IC50 (nM) ELISA.
[3] abbreviates: Example 1 bivalent IA study, FIG. 4, read-out: IC50 of vitronectin binding to αvβ3 (ELISA).

A word on the IC50: it is the concentration that inhibits the measured activity by half. Broadly, the cell viability is the share of living cells, or the viability signal relative to a control. Read a high cell viability as less harm to the cells. For `O=C(NCCS(=O)(=O)N[C@@H](CNC(=O)c1ccc(OCCNC2=NCCCN2)cc1)C(=O)O)OCCN(CCOC(=O)NCCS(=O)(=O)N[C@@H](CNC(=O)c1ccc(OCCNC2=NCCCN2)cc1)C(=O)O)CCOC(=O)NCCS(=O)(=O)N[C@@H](CNC(=O)c1ccc(OCCNC2=NCCCN2)cc1)C(=O)O` [IA trimer], the “increase in IC50 from the dimer to trimer” value on purified human αvβ3 (compared to IA dimer) came to 2 fold. Also, the “in vitro measured IC50 increase from IA-monomer” value on purified human αvβ3 is given as 56 fold. Further, the concentration for half-maximal inhibition (IC50) at purified human αvβ3 (setting [2]) worked out at 0.22 nM. Further, in the data set with B16F10 cells, the cell viability was approximately 80%.
On to `NCCS(=O)(=O)N[C@@H](CNC(=O)c1ccc(OCCNC2=NCCCN2)cc1)C(=O)O` [IA, 4-[2-(3,4,5,6-tetrahydropyrimidine-2-ylamino)ethyloxy]benzoyl-2-(S)-aminoethylsulfonyl-amino-β-alanine], for which the IC50 on purified human αvβ3 (setting [3]) worked out at 22.3 ± 4.51 nM; at purified human αvβ3 (Example 2, PEG-linked ligands, averages of at least three determinations, read-out: In vitro EL1SA IC50), 22.3 nM; on purified human αvβ3 (setting [2]), 11 nM. In addition, the cell viability result with B16F10 cells (listed as IA-monomer) was “smaller and less significant; also recorded: no significant changes of cell viability”.
As to `NC(CCCCCC(=O)NCCS(=O)(=O)N[C@@H](CNC(=O)c1ccc(OCCNC2=NCCCN2)cc1)C(=O)O)C(=O)NCCS(=O)(=O)N[C@@H](CNC(=O)c1ccc(OCCNC2=NCCCN2)cc1)C(=O)O` (stereo partly drawn) [bivalent IA], at purified human αvβ3, the “integrin αvβ3 binding affinity compared to monomer” value is “significantly higher integrin avb3-binding affinity and specificity than IA monomer”; the “in vitro measured IC50 increase from IA-monomer” value was determined as 28 fold. The IC50 at purified human αvβ3 (setting [3]) turned out to be 0.4 ± 0.11 nM. The “improvement in receptor affinity (IC50) over c-[RGDfV]” value on purified human αvβ3 (compared to c-[RGDfV]) is 10 fold. For the same compound, the half-inhibitory concentration (IC50) at purified human αvβ3 (setting [2]) was 0.44 nM. Moreover, in the data set on B16F10 cells (listed as IA-dimer), the cell viability entry is “smaller and less significant; also recorded: no significant changes of cell viability”. The “blocking of bivalent-IA-Cy5.5 binding/endocytosis in U-87 cells” value in data set [1] is “complete blockage of endocytosis of the imaging probes; also recorded: effectively blocked”.
